Like-named read-outs stand apart in the source and are kept apart here.
Legend:
[1] = 24-well, 48 hours
Protocol: In this example 0.8 mm media was used.
(§1) Naproxen and hydroxypropyllcellulose (HPC-SL) as a surface stabilizer were combined at a drug:stabilizer ratio of 4:1. Samples of the composition and grinding media, as shown in the table below, were added to the wells of a 24-well microplate One well was used for each condition. The microplate was then agitated at the maximum sustainable speed using an orbital shaking platform driven by a standard laboratory magnetic stirring device. After 48 hours the average particle size of naproxen was estimated by light microscopy.

[2] = 48-well, 0.5 g 0.8 mm media, 0.125 ml slurry, HPC-SL 4:1, 48 hours
Protocol: as §1, with “48-well microplate.” for “24-well microplate”, “hours,” for “hours”

## COc1ccc2cc([C@H](C)C(=O)O)ccc2c1 [Naproxen]
[1]; 0.25 mg drug, 1 g 0.8 mm media, 0.25 ml slurry, HPC-SL 4:1
  Average Particle Size of Naproxen: <1 μm,
[1]; 0.5 mg drug, 2 g 0.8 mm media, 0.5 ml slurry, HPC-SL 4:1
  Average Particle Size of Naproxen: <1 μm,
[1]; 1.25 mg drug, 1 g 0.8 mm media, 0.25 ml slurry, HPC-SL 4:1
  Average Particle Size of Naproxen: <1 μm,
[1]; 2.5 mg drug, 1 g 0.8 mm media, 0.25 ml slurry, HPC-SL 4:1
  Average Particle Size of Naproxen: <0.5 μm
[1]; 5 mg drug, 1 g 0.8 mm media, 0.25 ml slurry, HPC-SL 4:1
  Average Particle Size of Naproxen: <0.5 μm
[1]; 10 mg drug, 2 g 0.8 mm media, 0.5 ml slurry, HPC-SL drug:stabilizer 4:1
  Average Particle Size of Naproxen: <0.5 μm
[2]; 0.125 mg drug
  Average Particle Size: <1 μm
[2]; 0.625 mg drug
  Average Particle Size: <1 μm
[2]; 1.25 mg drug
  Average Particle Size: <0.5 μm
[2]; 2.5 mg drug
  Average Particle Size: <0.5 μm

Reference: patent US20040173696A1, “Milling microgram quantities of nanoparticulate candidate compounds” (Elan Pharma International Ltd., priority 2002, published 2004)
